Assay [1] relates to HEK293 cells. In kind it is cell-based, human. The conditions noted are these: for IFN response in target cells under pharmacological inhibition: cells treated 1 hour prior to infection, 5 μM, MOI=1; for effect on IFN induction by HIV-1-GFP: cGAS-reconstituted producer cells treated during virus preparation, 20 μM GW4869, 60 μM Ac-DEVD-CHO.
Assay [2] has as its system IFNβ promoter reporter (p125-F-Luc). In kind it is cell-based, human. As to conditions: HEK293 cells transfected with 2 μg 2′-3′-cGAMP, 24 hours.
In assay [3] the test system is Ova-specific CD8+ T cells. The assay can be described thus: CD8+ T cell responses after subcutaneous immunization (tetramer, IFN-g ELISPOT). The conditions noted are these: cGAMP at a far higher dose of cGAMP. It counts as in vivo, mice.

As to `Cc1nnc(C(=O)NC(C)(C)c2nc(C(=O)NCc3ccc(F)cc3)c(O)c(=O)n2C)o1` [raltegravir], the “IFN response in target cells under pharmacological inhibition” value in assay [1] was “independent of reverse transcription and integration”.
Regarding `Cc1ccnc2c1NC(=O)c1cccnc1N2C1CC1` [nevirapine], in assay [1], the “IFN response in target cells under pharmacological inhibition” value was “independent of reverse transcription and integration”.
Turning to `Nc1nc2c(ncn2[C@@H]2O[C@@H]3COP(=O)(O)O[C@H]4[C@@H](O)[C@H](n5cnc6c(N)ncnc65)O[C@@H]4COP(=O)(O)O[C@@H]2[C@@H]3O)c(=O)[nH]1` [cGAMP, 2′-3′-cyclic GMP-AMP], the “IFN induction in response to cGAMP” value in assay [2] is reported as “induce IFN”. In addition, the “tumor-specific T cell response” value in assay [3] was “not able to significantly induce”.
For Ac-DEVD-CHO, in assay [1], the “effect on IFN induction by HIV-1-GFP” value is listed as “did not diminish IFN induction”.
`O=C(/C=C/c1ccc(/C=C/C(=O)Nc2ccc(C3=NCCN3)cc2)cc1)Nc1ccc(C2=NCCN2)cc1` [GW4869]: the “effect on IFN induction by HIV-1-GFP” value in assay [1] was “did not diminish IFN induction”.

The values above are taken from patent US20190105381A1, “METHOD FOR PREPARING VIRAL PARTICLES WITH CYCLIC DINUCLEOTIDE AND USE OF SAID PARTICLES FOR TREATING CANCER” (priority 2016, published 2019).
